Data reported in patent US6699656B2, “Treatment and prevention of HIV infection by administration of derivatives of human chorionic gonadotropin” (University of Maryland Biotechnology Institute, priority 1996, dated 2004).
Bridges are numbered along the chain shown (N, C = ends). Where no end group is shown, it is not given here.

Tests used:
HIV-1 [1] = system: HIV-1
[2] = system: hematopoietic progenitor cells; assay: Hematopoietic progenitor colony assays (CFU-MIX, BFU-e, CFU-GM); assay type: cell-based; details: bone marrow and cord blood; hCG 200 IU/ml, peptides and subunits 100 μg/ml; 10 days
Description: Hematopoietic progenitor cells (2×10^5 cell/ml) were isolated from normal bone marrow and cord blood and seeded in methylcellulose. […] Aggregates containing more than 50 cells after 10 days of culture were counted as colonies.

HIV-1 [3] = details: p24 antigen days 3 to 10; peptides 0.05 to 50 nmoles/ml, hCG 0.01 to 1,000 IU, native β-hCG 100 to 1,000 μg
Procedure: Sequences of the peptides are as follows:
HIV-1 infected cells were treated with the above preparations and the virus was measured.

KS Y-1 tumors = KS Y-1 tumors induced in immunodeficient mice; assay type: in vivo; details: treatment from one week after tumor cell injection; peptides 10 μg daily 5 days, hCG APL 100 IU s.c. daily 7 days
Procedure: The effects of the peptides on KS tumor cells were also evaluated in vivo in the mouse model. To induce KS tumors in the mice, 1×10^6/ml KS Y-1 cells in 50 μl PBS or saline were injected subcutaneously into immunodeficient mice (beige-XID-BNX mice). […] Methods for detection of apoptosis (from tissue biopsies) were used, as described in Lunardi-Iskandar, Y. et al.(1995, Nature 375:64-68). Briefly, the samples were stained in situ for the presence of cells with DNA fragmentation. Tissue slides from formalin-fixed tumors were treated with terminal deoxynucleotide transferase for extension of DNA ends (hydroxyl 3′) and incorporation of digoxigenin-11-dUTP according to the manufacturer's instructions (Oncor, Gaithersburg, Md.). Anti-digoxigenin antibody conjugated with the enzyme peroxidase allowed detection of apoptotic cells that stain brown whereas viable cells stain blue.

KS Y-1 or KS-SLK cells = assay: KS clonogenic assay; assay type: cell-based, human; details: 2 KS cell lines; peptides 50 nmoles/ml, CR127 2 nmoles/ml; 10 days
Procedure: Briefly, the KS Y-1 cells were obtained from mononuclear cells isolated from pleural effusion of an AIDS patient with KS involving the lungs. After the depletion of T lymphocytes, monocytes/macrophages and fibroblasts by the cytotoxicity method, using monoclonal antibodies against CD2, CD3, CD4, CD8, CD10 and CD14 membrane antigens and baby rabbit complement, the cells were cultured in the absence of exogenous growth factors to select for transformed cells.

HIV-1 transgenic mice = assay type: in vivo
Kaposi's Sarcoma = details: literature; cited from earlier work

| Compound | growth of hematopoietic progenitors (colonies) [2] | inhibition of HIV-1 infection/replication in acutely infected cells (HIV-1 [3]) | effect on KS Y-1 tumors in mice (cell death, thin sections) (KS Y-1 tumors) | anti-KS effect in clonogenic assays (number of colonies) (KS Y-1 or KS-SLK cells) | other results |
| --- | --- | --- | --- | --- | --- |
| CC(C)c1nc(CN(C)C(=O)N[C@H](C(=O)N[C@@H](Cc2ccccc2)C[C@H](O)[C@H](Cc2ccccc2)NC(=O)OCc2cncs2)C(C)C)cs1 [Ritonavir] | – | – | – | – | CD4+ T cells, patient PH-SPBE (HIV-1 [1]; Ritonavir added at 22 weeks to ongoing hCG treatment): over 300 mm^3 |
| CC(C)(C)NC(=O)[C@@H]1CN(Cc2cccnc2)CCN1C[C@@H](O)C[C@@H](Cc1ccccc1)C(=O)N[C@H]1c2ccccc2C[C@H]1O [indinavir (Crixivan)] | – | – | – | – | viral load, patient PH-JPV (HIV-1 [1]; indinavir added after hCG induced pulmonary response): undetectable viral load |
| Cys Leu Gln Gly Val Leu Pro Ala Leu Pro Gln Val Val Cys (CLQGVLPALPQVVC; disulfide 1-14 (inferred)) [Satellin A2 peptide] | directly promoted | most active | extensive cell death | strongest anti-tumor effects | – |
| LQGVLPALPQVVC [β-hCG peptide 45-57] | directly promoted | most active | extensive cell death | strongest anti-tumor effects | – |
| Leu Gln Dab(Pro) Val Leu Pro Dab(Pro) Leu Pro Gln Val Val Cys [branched β-hCG 45-57] | – | – | – | – | hyperkeratosis of the skin / histology (HIV-1 transgenic mice; HIV-1 transgenic mice): normal histology; growth retardation and cachexia (HIV-1 transgenic mice; HIV-1 transgenic mice, branched peptide 10 μg to mothers s.c. daily for 10 days): reversal; survival (HIV-1 transgenic mice; all untreated mice died within 10 days, 10 μg to mothers s.c. daily for 10 days): survived; gp120 and nef protein by antibody staining (HIV-1 transgenic mice; pups, 10 μg to mothers s.c. daily for 10 days): down regulation |
| TCDDPRFQDSS [β-hCG peptide 109-119] | directly promoted | active | – | strongest anti-tumor effects | efficacy in the treatment of Kaposi's Sarcoma (Kaposi's Sarcoma): efficacious |
| α-hCG peptide 88-92: α-hCG peptide of amino acids 88-92 (YYHKS; UniProt P01215 112-116, looked up, fragment) | little or no effects | little or no effect | inactive | little or no inhibition | – |
| β-hCG peptide 6-16: β-hCG peptide of amino acids 6-16 (RPRCRPINATL; UniProt P0DN86 26-36, looked up, fragment) | little or no effects | little or no effect | inactive | little or no inhibition | – |
| β-hCG peptide 6-40: β-hCG peptide 6-40, forms the β-core (RPRCRPINATLAVEKEGCPVCITVNTTICAGYCPT; UniProt P0DN86 26-60, looked up, fragment) | – | – | slight activity | – | – |
| β-hCG peptide 7-40: β-hCG peptide of amino acids 7-40 (PRCRPINATLAVEKEGCPVCITVNTTICAGYCPT; UniProt P0DN86 27-60, looked up, fragment) | little or no effects | – | – | little or no inhibition | – |
| β-hCG peptide 34-49: β-hCG peptide of amino acids 34-49 (CAGYCPTMTRVLQGVL; UniProt P0DN86 54-69, looked up, fragment) | little or no effects | – | inactive | little or no inhibition | – |
| β-hCG peptide 38-57: β-hCG peptide of amino acids 38-57, overlaps satellin A1 (CPTMTRVLQGVLPALPQVVC; UniProt P0DN86 58-77, looked up, fragment) | little or no effects | – | slight activity | little or no inhibition | – |
| β-hCG peptide 55-90: β-hCG peptide 55-90, forms the β-core (VVCNYRDVRFESIRLPGCPRGVNPVVSYAVALSCQC; UniProt P0DN86 75-110, looked up, fragment) | – | – | slight activity | – | – |
| β-hCG peptide 57-93: β-hCG peptide of amino acids 57-93 (CNYRDVRFESIRLPGCPRGVNPVVSYAVALSCQCALC; UniProt P0DN86 77-113, looked up, fragment) | little or no effects | – | inactive | little or no inhibition | – |
| β-hCG peptide 74-95: β-hCG peptide of amino acids 74-95 (RGVNPVVSYAVALSCQCALCRR; UniProt P0DN86 94-115, looked up, fragment) | little or no effects | little or no effect | inactive | little or no inhibition | – |
| β-hCG peptide 93-100: β-hCG peptide of amino acids 93-100 (CRRSTTDC; UniProt P0DN86 113-120, looked up, fragment) | – | – | inactive | – | – |
| β-hCG peptide 100-110: β-hCG peptide of amino acids 100-110 (CGGPKDHPLTC; UniProt P0DN86 120-130, looked up, fragment) | little or no effects | – | inactive | little or no inhibition | – |
| β-hCG peptide 109-145: β-hCG carboxy-terminal peptide of amino acids 109-145 (TCDDPRFQDSSSSKAPPPSLPSPSRLPGPSDTPILPQ) | – | – | – | – | efficacy in the treatment of Kaposi's Sarcoma (Kaposi's Sarcoma): efficacious |
| β-hCG peptide 123-145: β-hCG peptide of amino acids 123-145 | little or no effects | – | inactive | – | – |
| β-hCG peptide 134-144: β-hCG peptide of amino acids 134-144 | little or no effects | – | inactive | – | – |
